The values that follow come from patent US20080234629A1, “WATER ELECTROLYSIS TO FACILITATE DRUG DELIVERY BY IONTOPHORESIS” (priority 2007, published 2008).

SMILES strings stand for the structures.

A short description of the series: Solubility of acyclovir in the aqueous portion of the formulation, from propylene glycol/water solubility measurements. To be noted: estimated from propylene glycol/water solubility measurements. It is filed as physicochemical. The source says: Assuming that the electrolysis is 100% efficient, the expected proton generation is […] (0.4 mA×600 sec×6.2×10^18, coulomb, ÷[…]; assuming each electron generate one proton). Thus the electrolysis of water provides enough protons to ionize the soluble portion of the dose. Since the current density in the invented system is typical for iontophoresis, the rate of proton generation in this system can be realized in other iontophoretic systems. Because the coulombic dose in this iontophoretic system is at the low end of iontophoretic doses, larger quantities of protons could be generated for use in other applications.

In the case of `Nc1nc2c(ncn2COCCO)c(=O)[nH]1` [Acyclovir], the “solubility of acyclovir in the aqueous portion of the formulation” value was around 0.3 % by weight.
